Data from patent US10508104B2, “6-hydroxy-5-(phenyl/heteroarylsulfonyl)pyrimidin-4(1H)-one as APJ agonists” (Bristol-Myers Squibb Company, priority 2016, dated 2019).

Target: human APJ receptor (Homo sapiens (Human), UniProt P35414)
Assay: Intracellular cAMP accumulation assay (APJ hcAMP, HTRF)
Assay type: cell-based
Details: HEK293 cells stably expressing human APJ receptor; inhibition of forskolin-mediated cAMP production; read-out: Human APJ cAMP EC50 Potency range
How it was run: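 HEK293 cells stably expressing human APJ, 5,000 per well, incubated 30 min at rt with compound, […] and 2 μM forskolin. cAMP measured by HTRF against a cAMP standard curve as inhibition of forskolin-driven production. EC50 from variable-slope sigmoidal fit.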

Sequence of human APJ receptor (P35414 whole entry): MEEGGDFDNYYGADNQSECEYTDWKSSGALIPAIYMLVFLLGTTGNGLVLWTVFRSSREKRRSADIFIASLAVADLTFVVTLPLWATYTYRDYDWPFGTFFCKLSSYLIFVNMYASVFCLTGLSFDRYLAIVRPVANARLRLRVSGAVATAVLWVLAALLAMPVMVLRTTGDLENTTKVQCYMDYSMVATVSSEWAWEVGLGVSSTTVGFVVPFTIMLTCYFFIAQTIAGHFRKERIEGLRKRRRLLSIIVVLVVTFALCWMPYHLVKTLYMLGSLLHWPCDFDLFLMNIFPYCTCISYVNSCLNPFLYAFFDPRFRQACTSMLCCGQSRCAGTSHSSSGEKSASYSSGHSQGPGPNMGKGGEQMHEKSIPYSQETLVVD

SMILES | EC50
COC[C@@H](c1cccc(C#N)c1)n1c(COC(C)C)nc(=O)c(S(=O)(=O)c2ccc(-c3cnccc3C#N)cc2)c1O [Example 411, 3-[4-({1-[(1R)-1-(3-cyanophenyl)-2-methoxyethyl]-6-hydroxy-4-oxo-2-[(propan-2-yloxy)methyl]-1,4-dihydropyrimidin-5-yl}sulfonyl)phenyl]pyridine-4-carbonitrile] | 0.01 to 10 nM
CCCCc1nc(=O)c(S(=O)(=O)c2ccc(-c3ccnc(F)c3C)cc2)c(O)n1[C@@H](COC)c1cccc(C(N)=O)c1 [Example 412, 3-[(1R)-1-{2-butyl-5-[4-(2-fluoro-3-methylpyridin-4-yl)benzenesulfonyl]-6-hydroxy-4-oxo-1,4-dihydropyrimidin-1-yl}-2-methoxyethyl]benzamide] | 0.01 to 10 nM
COC[C@@H](c1ccccc1)n1c(COC(C)C)nc(=O)c(S(=O)(=O)c2ccc(-c3cnccc3C#N)cc2)c1O [Example 413, 3-[4-({6-hydroxy-1-[(1R)-2-methoxy-1-phenylethyl]-4-oxo-2-[(propan-2-yloxy)methyl]-1,4-dihydropyrimidin-5-yl}sulfonyl)phenyl] pyridine-4-carbonitrile] | 0.01 to 10 nM
CC(C)OCc1nc(=O)c(S(=O)(=O)c2ccc(-c3cnccc3C#N)cc2)c(O)n1[C@H](c1cccc(C#N)c1)C1CC1 [Example 414, 3-[4-({1-[(S)-(3-cyanophenyl)(cyclopropyl)methyl]-6-hydroxy-4-oxo-2-[(propan-2-yloxy)methyl]-1,4-dihydropyrimidin-5-yl}sulfonyl)phenyl] pyridine-4-carbonitrile] | 0.01 to 10 nM
Cc1cnccc1-c1ccc(S(=O)(=O)c2c(O)n([C@H](c3cccc(C#N)c3)C3CC3)c(COC(C)C)nc2=O)cc1 [Example 415, 3-[(S)-cyclopropyl({6-hydroxy-5-[4-(3-methylpyridin-4-yl)benzenesulfonyl]-4-oxo-2-[(propan-2-yloxy)methyl]-1,4-dihydropyrimidin-1-yl})methyl]benzonitrile] | 0.01 to 10 nM
CC(C)OCc1nc(=O)c(S(=O)(=O)c2ccc(-c3ccncc3C#N)cc2)c(O)n1[C@H](c1cccc(C#N)c1)C1CC1 [Example 416, 4-[4-({1-[(S)-(3-cyanophenyl)(cyclopropyl)methyl]-6-hydroxy-4-oxo-2-[(propan-2-yloxy)methyl]-1,4-dihydropyrimidin-5-yl}sulfonyl)phenyl]pyridine-3-carbonitrile] | 0.01 to 10 nM
CC(C)OCc1nc(=O)c(S(=O)(=O)c2ccc(-c3ccc(F)cc3C(N)=O)cc2)c(O)n1[C@H](c1cccc(C#N)c1)C1CC1 [Example 417, 4′-({1-[(S)-(3-cyanophenyl)(cyclopropyl)methyl]-6-hydroxy-4-oxo-2-[(propan-2-yloxy)methyl]-1,4-dihydropyrimidin-5-yl}sulfonyl)-4-fluoro-[1,1′-biphenyl]-2-carboxamide] | 0.01 to 10 nM
CC(C)OCc1nc(=O)c(S(=O)(=O)c2ccc(-c3ccccc3C(N)=O)cc2)c(O)n1[C@H](c1cccc(C#N)c1)C1CC1 [Example 418, 4′-({1-[(S)-(3-cyanophenyl)(cyclopropyl)methyl]-6-hydroxy-4-oxo-2-[(propan-2-yloxy)methyl]-1,4-dihydropyrimidin-5-yl}sulfonyl)-[1,1′-biphenyl]-2-carboxamide] | 0.01 to 10 nM
Cc1c(-c2ccc(S(=O)(=O)c3c(O)n([C@H](c4cccc(C#N)c4)C4CC4)c(COC(C)C)nc3=O)cc2)ccnc1F [Example 419, 3-[(S)-cyclopropyl({5-[4-(2-fluoro-3-methylpyridin-4-yl)benzenesulfonyl]-6-hydroxy-4-oxo-2-[(propan-2-yloxy)methyl]-1,4-dihydropyrimidin-1-yl})methyl]benzonitrile] | 0.01 to 10 nM
CNC(=O)c1ccccc1-c1ccc(S(=O)(=O)c2c(O)n([C@H](c3cccc(C#N)c3)C3CC3)c(COC(C)C)nc2=O)cc1 [Example 420, 4′-({1-[(S)-(3-cyanophenyl)(cyclopropyl)methyl]-6-hydroxy-4-oxo-2-[(propan-2-yloxy)methyl]-1,4-dihydropyrinudin-5-yl}sulfonyl)-N-methyl-[1,1′-biphenyl]-2-carboxamide] | 0.01 to 10 nM
CCOCc1nc(=O)c(S(=O)(=O)c2ccc(-c3ccccc3C(=O)NC)cc2)c(O)n1[C@H]1CCc2ccccc21 [Example 421, 4′-({1-[(1S)-2,3-dihydro-1H-inden-1-yl]-2-(ethoxymethyl)-6-hydroxy-4-oxo-1,4-dihydropyrimidin-5-yl}sulfonyl)-N-methy1-[1,1′-biphenyl]-2-carboxamide] | 0.01 to 10 nM
CC[C@@H](c1ccccc1)n1c(COC(C)C)nc(=O)c(S(=O)(=O)c2ccc(-c3ccccc3C(=O)NC)cc2)c1O [Example 422, 4′-({6-hydroxy-4-oxo-1-[(1S)-1-phenylpropyl]-2-[(propan-2-yloxy)methyl]-1,4-dihydropyrimidin-5-yl}sulfonyl)-N-methy1-[1,1′-biphenyl]-2-carboxamide] | 0.01 to 10 nM
CCCCc1nc(=O)c(S(=O)(=O)c2ccc(-c3ccncc3C)cc2)c(O)n1[C@@H](CC)c1ccc(F)cc1 [Example 423, 2-butyl-1-[(1S)-1-(4-fluorophenyl)propyl]-6-hydroxy-5-[4-(3-methylpyridin-4-yl)benzenesulfonyl]-1,4-dihydropyrimidin-4-one] | 0.01 to 10 nM
CCCCc1nc(=O)c(S(=O)(=O)c2ccc(-c3ccnc(F)c3C)cc2)c(O)n1[C@@H](CC)c1ccc(F)cc1 [Example 424, 2-butyl-5-[4-(2-fluoro-3-methylpyridin-4-yl)benzenesulfonyl]-1-[(1S)-1-(4-fluorophenyl)propyl]-6-hydroxy-1,4-dihydropyrimidin-4-one] | 0.01 to 10 nM

More lines, now with the values ahead:

EC50 | SMILES
0.01 to 10 nM | CC[C@@H](c1cccc(C#N)c1)n1c(COC(C)C)nc(=O)c(S(=O)(=O)c2ccc(-c3ccccc3C(N)=O)cc2)c1O [Example 400, 4′-({1-[(1S)-1-(3-cyanophenyl)propyl]-6-hydroxy-4-oxo-2-[(propan-2-yloxy)methyl]-1,4-dihydropyrimidin-5-yl}sulfonyl)-[1,1′-biphenyl]-2-carboxamide]
0.01 to 10 nM | CCOCc1nc(=O)c(S(=O)(=O)c2ccc(-c3ccccc3C(N)=O)c(F)c2)c(O)n1C(COC)c1cccc(F)c1 (stereo not shown) [Example 401, 4′-{[2-(ethoxymethyl)-1-[1-(3-fluorophenyl)-2-methoxyethyl]-6-hydroxy-4-oxo-1,4-dihydropyrimidin-5-yl]sulfonyl}-2′-fluoro-[1,1′-biphenyl]-2-carboxamide]
0.01 to 10 nM | COC[C@@H](c1ccccc1)n1c(COC(C)C)nc(=O)c(S(=O)(=O)c2ccc(-c3ccccc3C(N)=O)c(F)c2)c1O [Example 402, 2′-fluoro-4′-({6-hydroxy-1-[(1R)-2-methoxy-1-phenylethyl]-4-oxo-2-[(propan-2-yloxy)methyl]-1,4-dihydropyrimidin-5-yl}sulfonyl)-[1,1′-biphenyl]-2-carboxamide]
0.01 to 10 nM | CC[C@@H](c1cccc(C#N)c1)n1c(COC(C)C)nc(=O)c(S(=O)(=O)c2ccc(-c3ccncc3C#N)cc2)c1O [Example 403, 4-[4-({1-[(1S)-1-(3-cyanophenyl)propyl]-6-hydroxy-4-oxo-2-[(propan-2-yloxy)methyl]-1,4-dihydropyrimidin-5-yl}sulfonyl)phenyl]pyridine-3-carbonitrile]
0.01 to 10 nM | COC[C@@H](c1cccc(C#N)c1)n1c(COC(C)C)nc(=O)c(S(=O)(=O)c2ccc(-c3ccncc3C#N)cc2)c1O [Example 404, 4-[4-({1-[(1R)-1-(3-cyanophenyl)-2-methoxyethyl]-6-hydroxy-4-oxo-2-[(propan-2-yloxy)methyl]-1,4-dihydropyrimidin-5-yl}sulfonyl)phenyl] pyridine-3-carbonitrile]
0.01 to 10 nM | COC[C@@H](c1ccccc1)n1c(COC(C)C)nc(=O)c(S(=O)(=O)c2ccc(-c3ccncc3C#N)c(F)c2)c1O [Example 405, 4-[2-fluoro-4-({6-hydroxy-1-[(1R)-2-methoxy-1-phenylethyl]-4-oxo-2-[(propan-2-yloxy)methyl]-1,4-dihydropyrimidin-5-yl}sulfonyl)phenyl]pyridine-3-carbonitrile]
0.01 to 10 nM | COC[C@@H](c1ccccc1)n1c(COC(C)C)nc(=O)c(S(=O)(=O)c2ccc(-c3ccncc3C#N)cc2)c1O [Example 406, 4-[4-({6-hydroxy-1-[(1R)-2-methoxy-1-phenylethyl]-4-oxo-2-[(propan-2-yloxy)methyl]-1,4-dihydropyrimidin-5-yl}sulfonyl)phenyl]pyridine-3-carbonitrile]
0.01 to 10 nM | COC[C@@H](c1cc(F)cc(F)c1)n1c(COC(C)C)nc(=O)c(S(=O)(=O)c2ccc(-c3cnccc3C#N)cc2)c1O [Example 407, 3-[4-({1-[(1R)-1-(3,5-difluorophenyl)-2-methoxyethyl]-6-hydroxy-4-oxo-2-[(propan-2-yloxy)methyl]-1,4-dihydropyrimidin-5-yl}sulfonyl)phenyl] pyridine-4-carbonitrile]
0.01 to 10 nM | COC[C@@H](c1cc(F)cc(F)c1)n1c(COC(C)C)nc(=O)c(S(=O)(=O)c2ccc(-c3cccn(C)c3=O)cc2)c1O [Example 408, 1-[(1R)-1-(3,5-difluorophenyl)-2-methoxyethyl]-6-hydroxy-5-[4-(1-methyl-2-oxo-1,2-dihydropyridin-3-yl)benzenesulfonyl]-2-[(propan-2-yloxy)methyl]-1,4-dihydropyrimidin-4-one]
0.01 to 10 nM | COC[C@@H](c1ccccc1)n1c(COC(C)C)nc(=O)c(S(=O)(=O)c2ccc(-c3cnccc3C#N)c(F)c2)c1O [Example 409, 3-[2-fluoro-4-({6-hydroxy-1-[(1R)-2-methoxy-1-phenylethyl]-4-oxo-2-[(propan-2-yloxy)methyl]-1,4-dihydropyrimidin-5-yl}sulfonyl)phenyl]pyridine-4-carbonitrile]
0.01 to 10 nM | CC[C@@H](c1cccc(C#N)c1)n1c(COC(C)C)nc(=O)c(S(=O)(=O)c2ccc(-c3cnccc3C#N)cc2)c1O [Example 410, 3-[4-({1-[(1S)-1-(3-cyanophenyl)propyl]-6-hydroxy-4-oxo-2-[(propan-2-yloxy)methyl]-1,4-dihydropyrimidin-5-yl}sulfonyl)phenyl]pyridine-4-carbonitrile]
